Laboratory results reported in paper PMC7144120, “Psoralen Derivatives as Inhibitors of Mycobacterium tuberculosis Proteasome” (Molecules, 2020).
“Also recorded” adds a separate entry of the source. Where two headings read alike, the source gives them in different places.

Columns and labels:
[1] = molecular target: T1, Mtb proteasome (Mycobacterium tuberculosis, UniProt P9WHT9); experiment: biochemical; assay type: biochemical; settings: for IC50: 50 µM Suc-LLVY-AMC, 30 min preincubation, 37 °C, triplicate, read-out: IC50 against the Mtb proteasome; for Hill Coefficient: from IC50 curve, Mtb proteasome
T1 construct: made in house
T1 sequence (P9WHT9 whole entry, looked up): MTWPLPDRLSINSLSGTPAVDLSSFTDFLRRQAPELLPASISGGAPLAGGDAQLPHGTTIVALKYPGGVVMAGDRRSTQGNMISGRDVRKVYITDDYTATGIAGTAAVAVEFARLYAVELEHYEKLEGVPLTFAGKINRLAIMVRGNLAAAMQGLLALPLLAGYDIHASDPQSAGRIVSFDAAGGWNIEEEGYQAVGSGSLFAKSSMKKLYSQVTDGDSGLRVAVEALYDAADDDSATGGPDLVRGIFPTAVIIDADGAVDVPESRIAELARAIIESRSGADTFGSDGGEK

[2] = molecular target: T1, Mtb proteasome; experiment: Determination of Ki and type of inhibition (varied substrate concentration, GraphPad Prism model fit); assay type: biochemical; settings: for Ki: best scoring inhibition model; for Type of Inhibition: best ranking model (mixed, competitive, noncompetitive, uncompetitive)
Description: The concentrations of 11, 13 and 15 were 0, 0.56, 0.81, 1.15, 1.65, 2.35, 4.80, 9.80 and 20 µM. Further, the concentrations for compound 8 were 0, 1.65, 2.35, 4.80, 9.80 µM and for bortezomib 0, 0.28, 0.40, 0.58, 0.82, 1.18, 2.40, 4.90 and 10 µM. All experiments were performed in triplicate. The resulting data were analyzed using the GraphPad Prism 6 software and were fitted to the software provided models for competitive, noncompetitive, uncompetitive and mixed type enzyme inhibition. The mode of inhibition and Ki values were chosen from the best ranking model, as determined by the software. Representative graphs (Michaelis-Menten, Dixon and Lineweaver-Burk plots) depicting the data fit for the best ranking model of inhibition for all compounds are shown in the Supplementary data (Figures S2–S19).

[3] = tested on: ß5i of IP; settings: cited from earlier work; for IC50: read-out: IC50 against ß5i of IP; for RA at 10 µM against ß5i of IP: residual activity of β5i in the presence of 10 μM compound
[4] = molecular target: T1, Mtb proteasome; assay type: biochemical; settings: for Reversibility of inhibition: Mtb proteasome, 100-fold dilution after preincubation

SMILES	IC50 [3] [nM]	RA at 10 µM against ß5i of IP [3] [%]	RA at 100 µM against Mtb [1] [%]	further results
CC(C)C[C@H](NC(=O)[C@H](Cc1ccccc1)NC(=O)c1cnccn1)B(O)O [Bortezomib, reference compound]	4			IC50 [1]: 110 ± 30 nM; Hill Coefficient [1]: 0.76; α (mixed inhibition model) [2]: 0.85; Ki ([2]; Ki): 133 nM; Type of Inhibition [2]: Mixed inhibition; Type of Inhibition ([2]; listed as bortezomib): mixed type of inhibition; proteasome activity retained ([4]; 5 × IC50 concentration, 0-, 15-, 30- or 60-min preincubation at 25 °C): approximately 55%; Reversibility of inhibition [4]: (Slow) reversible inhibition; Reversibility of inhibition ([4]; listed as bortezomib): “slow/partially” reversible; loss of enzyme activity compared to the DMSO control ([4]; concentrations equal or higher than IC50, longer preincubation time): ≤ 45%
Cc1c(CCC(=O)NCC#N)c(=O)oc2cc3occ(C(C)(C)C)c3cc12 [Compound 8]		100		IC50 [1]: 3700 ± 1500 nM; Hill Coefficient [1]: 1.05; α (mixed inhibition model) [2]: 0.19; Ki ([2]; Ki): 5600 nM; Type of Inhibition [2]: mixed type of inhibition; Reversibility of inhibition [4]: reversible inhibitors; also recorded: Reversible inhibition
Cc1c(CCC=O)c(=O)oc2cc3c(cc12)C(c1ccccc1)CO3 (centres unmarked) [Compound 15]				IC50 [1]: 5800 ± 2100 nM; Hill Coefficient [1]: 0.55; α (mixed inhibition model) [2]: 0.22; Type of Inhibition [2]: mixed type of inhibition; Ki ([2]; read-out: Ki): 14900 nM; Reversibility of inhibition [4]: reversible inhibitors; also recorded: Reversible inhibition
Cc1c(CC(=O)N(C)CC#N)c(=O)oc2cc3occ(-c4ccc(Br)cc4)c3cc12 [Compound 52]		86	70	
Cc1c(CC(=O)N(C)CC#N)c(=O)oc2cc3occ(C(C)(C)C)c3cc12 [Compound 53]		96	97	
Cc1coc2cc3oc(=O)c(CC(=O)N(C)CC#N)c(C)c3cc12 [Compound 54]		99	95	
Cc1cc(-c2coc3cc4oc(=O)c(CC(=O)N(C)CC#N)c(C)c4cc23)c(C)s1 [Compound 55]		103	88	
Cc1c(CC(=O)N(C)CC#N)c(=O)oc2cc3occ(-c4ccco4)c3cc12 [Compound 56]		103	53	
Cc1cc(-c2coc3cc4oc(=O)c(CC(=O)N(C)CC#N)c(C)c4cc23)c(C)o1 [Compound 57]		96	100	
Cc1c(CC(=O)N(C)CC#N)c(=O)oc2cc3occ(C4CCCCC4)c3cc12 [Compound 58]		101	100	
Cc1c(CC(=O)NCC#N)c(=O)oc2cc3occ(-c4ccccc4)c3cc12 [Compound 59]		101	92	
Cc1c(CC(=O)NCC#N)c(=O)oc2cc3occ(-c4ccc(Br)cc4)c3cc12 [Compound 60]		105	87	
Cc1c(CC(=O)NCC#N)c(=O)oc2cc3occ(C(C)(C)C)c3cc12 [Compound 61]		91	92	
Cc1cc(-c2coc3cc4oc(=O)c(CC(=O)NCC#N)c(C)c4cc23)c(C)s1 [Compound 63]		101	95	
Cc1c(CC(=O)NCC#N)c(=O)oc2cc3occ(-c4ccco4)c3cc12 [Compound 64]		98	91	
Cc1c(CC(=O)NCC#N)c(=O)oc2cc3occ(C4CCCCC4)c3cc12 [Compound 65]		99	91	
Cc1c(CCC(=O)ON2C(=O)CCC2=O)c(=O)oc2cc3occ(-c4ccccc4)c3cc12 [Compound 66]	9 ± 2		66	
Cc1c(CCC(=O)ON2C(=O)CCC2=O)c(=O)oc2cc3occ(-c4ccc(Br)cc4)c3cc12 [Compound 67]	1900 ± 900		96	
COc1ccc(-c2coc3cc4oc(=O)c(CCC(=O)ON5C(=O)CCC5=O)c(C)c4cc23)cc1 [Compound 68]	640 ± 130		93	
COc1cccc(-c2coc3cc4oc(=O)c(CCC(=O)ON5C(=O)CCC5=O)c(C)c4cc23)c1 [Compound 69]	930 ± 570		72	

SMILES	IC50 [3] [nM]	RA at 10 µM against ß5i of IP [3] [%]	RA at 100 µM against Mtb [1] [%]	further results
Cc1c(CCC(=O)ON2C(=O)CCC2=O)c(=O)oc2cc3occ(C(C)(C)C)c3cc12 [Compound 70]		41	70	
Cc1coc2cc3oc(=O)c(CCC(=O)ON4C(=O)CCC4=O)c(C)c3cc12 [Compound 71]		66	97	
Cc1cc(-c2coc3cc4oc(=O)c(CCC(=O)ON5C(=O)CCC5=O)c(C)c4cc23)c(C)s1 [Compound 72]	1800 ± 800		95	
Cc1c(CC(=O)ON2C(=O)CCC2=O)c(=O)oc2cc3occ(-c4ccccc4)c3cc12 [Compound 73]	6360 ± 610		79	
Cc1c(CC(=O)ON2C(=O)CCC2=O)c(=O)oc2cc3occ(-c4ccc(Br)cc4)c3cc12 [Compound 74]		101	61	
Cc1c(CC(=O)ON2C(=O)CCC2=O)c(=O)oc2cc3occ(C(C)(C)C)c3cc12 [Compound 75]		53	88	
Cc1coc2cc3oc(=O)c(CC(=O)ON4C(=O)CCC4=O)c(C)c3cc12 [Compound 76]		101	53	
Cc1c(CC(=O)ON2C(=O)CCC2=O)c(=O)oc2cc3occ(-c4ccco4)c3cc12 [Compound 77]		44	56	
Cc1c(CC(=O)ON2C(=O)CCC2=O)c(=O)oc2cc3occ(C4CCCCC4)c3cc12 [Compound 78]		62	98	
Cc1c(CCC(=O)ON2C(=O)CCC2=O)c(=O)oc2c(C)c3occ(-c4ccccc4)c3cc12 [Compound 79]	3260 ± 1490		100	
Cc1c(CNC(=O)CC#N)c(=O)oc2cc3occ(-c4ccccc4)c3cc12 [Compound 81]		101	100	
C=CC(=O)NCc1c(C)c2cc3c(-c4ccccc4)coc3cc2oc1=O [Compound 82]		90	68	
CC=CC(=O)NCc1c(C)c2cc3c(-c4ccccc4)coc3cc2oc1=O [Compound 83]		116	52	
Cc1c(N)c(=O)oc2cc3occ(-c4ccccc4)c3cc12 [Compound 84]		88	100	
Cc1c(NC(=O)CC#N)c(=O)oc2cc3occ(-c4ccccc4)c3cc12 [Compound 85]		115	93	
C=CC(=O)Nc1c(C)c2cc3c(-c4ccccc4)coc3cc2oc1=O [Compound 86]	20500 ± 1360		95	
C/C=C/C(=O)Nc1c(C)c2cc3c(-c4ccccc4)coc3cc2oc1=O [Compound 87]		102	93	
Cc1c(-c2nsc(=O)o2)c(=O)oc2cc3occ(-c4ccccc4)c3cc12 [Compound 88]	13 ± 4		84	
Cc1c(Cc2nsc(=O)o2)c(=O)oc2cc3occ(-c4ccccc4)c3cc12 [Compound 89]	120 ± 50		65	
Cc1c(CCc2nsc(=O)o2)c(=O)oc2cc3occ(-c4ccccc4)c3cc12 [Compound 90]	200 ± 40		69	
